A short description of data set [1]: Selectivity index, ratio of IC50 for human MRC5 cells after 24 hrs to MIC for Staphylococcus aureus ATCC 29213. The format is toxicity, cell-based. The note with it: read-out: Selectivity Index.
Data set [2] is described as follows: Selectivity index, ratio of IC50 for human MRC5 cells after 24 hrs to MIC for Staphylococcus aureus ATCC 25923. The format is toxicity, cell-based. The note with it: read-out: Selectivity Index.
Data set [3] concerns Escherichia coli. The experiment in a line: Antimicrobial activity against Escherichia coli ATCC 25922 by broth microdilution method. The data set is classed as functional. On the technique in general: Broth dilution looks for growth in wells or tubes with falling amounts of substance.
The subject of data set [4] is Pseudomonas aeruginosa. The data set can be described thus: Antimicrobial activity against Pseudomonas aeruginosa ATCC 27853 by broth microdilution method. The format is functional.
Data set [5] concerns Staphylococcus aureus. The data set can be described thus: Antimicrobial activity against Staphylococcus aureus ATCC 29213 by broth microdilution method. The format is functional.
Data set [6] concerns MRC5. The data set can be described thus: Cytotoxicity against human MRC5 cells after 48 hrs by MTT assay. The format is cell-based. The note with it: MRC5, 48 h. A general note: Tetrazolium dyes change colour on reduction, which living cells bring about.
Data set [7] is described as follows: Selectivity index, ratio of IC50 for human MRC5 cells after 24 hrs to MIC for Pseudomonas aeruginosa ATCC 27853. The format is toxicity, cell-based. As to conditions: read-out: Selectivity Index.
The nature of data set [8]: Selectivity index, ratio of IC50 for human MRC5 cells after 24 hrs to MIC for Escherichia coli ATCC 25922. The data set is classed as toxicity, cell-based. The note with it: read-out: Selectivity Index.
Data set [9] deals with Staphylococcus aureus. The data set can be described thus: Antimicrobial activity against Staphylococcus aureus ATCC 25923 by broth microdilution method. The data set is classed as functional.
The subject of data set [10] is MRC5. The experiment in a line: Cytotoxicity against human MRC5 cells after 24 hrs by MTT assay. The note with it: MRC5, 24 h. The data set is classed as cell-based.
Data set [11] in a line: Selectivity index, ratio of IC50 for human MRC5 cells after 24 hrs to MIC for Enterococcus faecalis ATCC 29212. As to conditions: read-out: Selectivity Index. The data set is classed as toxicity, cell-based.
The subject of data set [12] is Enterococcus faecalis. The data set can be described thus: Antimicrobial activity against Enterococcus faecalis ATCC 29212 by broth microdilution method. The format is functional.

Consider `N=C(N)NCCc1ccc(OCc2ccccc2)cc1.O=C(O)C(F)(F)F`, for which the selectivity ratio at 24 h amounted to 3 in data set [1]; 1.5 in data set [2]; 0.4 in data set [7]; 0.8 in [8]; 0.2 in [11]. Also, the MIC stood at 32 µg/mL in data set [3]; 64 µg/mL in [4]; 8 µg/mL in data set [5]; 16 µg/mL in [9]; 128 µg/mL in data set [12]. Further, the IC50 in data set [6] turned out to be 19 µg/mL; in data set [10] it was 26 µg/mL.
With `N=C(N)NCCc1ccc(OCc2ccccc2COc2ccc(CCNC(=N)N)cc2)cc1.O=C(O)C(F)(F)F`, the selectivity ratio at 24 h in data set [1] was more than 100; in data set [2], more than 100; in [7], 6.2; in data set [8] it was 12.5; in [11] it was 12.5. In addition, the MIC was 8 µg/mL in data set [3]; 16 µg/mL in data set [4]; less than 1 µg/mL in data set [5]; less than 1 µg/mL in data set [9]; 8 µg/mL in data set [12]. In addition, the 50% inhibitory concentration (IC50) came to 41 µg/mL in [6] and 100 µg/mL in data set [10].
As to `N=C(N)NCCc1ccc(OCc2cccc(COc3ccc(CCNC(=N)N)cc3)c2)cc1.O=C(O)C(F)(F)F`, the selectivity ratio at 24 h is 17 in data set [1]; more than 34.5 in data set [2]; 1 in data set [7]; 2 in data set [8]; 2 in data set [11]. The MIC in data set [3] is 16 µg/mL; in [4], 32 µg/mL; in data set [5], 2 µg/mL; in [9] it was less than 1 µg/mL; in data set [12], 16 µg/mL. Further, the figures for the IC50 in data set [6] and in data set [10] were 29.7 µg/mL and 34.5 µg/mL, respectively.
Turning to `N=C(N)NCCc1ccc(OCc2ccc(COc3ccc(CCNC(=N)N)cc3)cc2)cc1.O=C(O)C(F)(F)F`, the selectivity ratio at 24 h was determined as 21 in [1]; 21 in data set [2]; 5.25 in [7]; 5.25 in data set [8]; 10.5 in [11]. The MIC in data set [3] came out at 4 µg/mL; in [4] it was 4 µg/mL; in data set [5], 1 µg/mL; in data set [9] it was 1 µg/mL; in data set [12], 2 µg/mL. Besides, the IC50 stood at 12.7 µg/mL in data set [6] and 21 µg/mL in [10].
`N=C(N)NCCc1ccc(OCc2cc(COc3ccc(CCNC(=N)N)cc3)cc(COc3ccc(CCNC(=N)N)cc3)c2)cc1.O=C(O)C(F)(F)F`: the selectivity ratio at 24 h in data set [1] was more than 39.5; in [2] it was more than 39.5; in [7], 2.5; in data set [8], more than 39.5; in data set [11], 5. Also, the MIC in [3] was less than 1 µg/mL; in data set [4], 16 µg/mL; in [5], less than 1 µg/mL; in data set [9], less than 1 µg/mL; in data set [12], 8 µg/mL. Moreover, the IC50 in data set [6] was found to be 30 µg/mL; in data set [10] it was 39.5 µg/mL.
Turning to `N=C(N)NCCc1ccc(OCc2cc(COc3ccc(CCNC(=N)N)cc3)c(COc3ccc(CCNC(=N)N)cc3)cc2COc2ccc(CCNC(=N)N)cc2)cc1.O=C(O)C(F)(F)F`, the selectivity ratio at 24 h is more than 49 in [1]; 24.5 in data set [2]; 6 in [7]; 12 in [8]; 12.2 in [11]. The MIC in data set [3] is 4 µg/mL; in data set [4], 8 µg/mL; in data set [5], less than 1 µg/mL; in data set [9] it was 2 µg/mL; in [12] it was 4 µg/mL. The IC50 stood at 38.5 µg/mL in data set [6] and 49 µg/mL in [10].
As to `N=C(N)NCCc1ccc(OCc2c(COc3ccc(CCNC(=N)N)cc3)c(COc3ccc(CCNC(=N)N)cc3)c(COc3ccc(CCNC(=N)N)cc3)c(COc3ccc(CCNC(=N)N)cc3)c2COc2ccc(CCNC(=N)N)cc2)cc1.O=C(O)C(F)(F)F`, the selectivity ratio at 24 h in data set [1] was determined as 3; in data set [2] it was 3; in [7] it was 1.5; in data set [8] it was 1.5; in data set [11] it was 3. Further, the MIC came out at 16 µg/mL in [3]; 16 µg/mL in [4]; 8 µg/mL in data set [5]; 8 µg/mL in data set [9]; 8 µg/mL in data set [12]. For the same compound, the IC50 in [6] stood at 30 µg/mL; in data set [10] it was 26 µg/mL.

By MIC is commonly meant the lowest concentration that inhibits growth of the organism. A high value points to weaker potency. For orientation: IC50 means the point on the concentration scale where inhibition reaches its midpoint. Higher therefore signals weaker potency in that assay.

For the origin of these results see ChEMBL document CHEMBL3351769, “Poly-guanidinoethylphenylethers organised around a benzene ring: synthesis and evaluation of their antibacterial and cytotoxic properties” (Bioorg Med Chem Lett, 2014).
